Assay results: patent US20250101042A1, “KRAS G12D MODULATING COMPOUNDS” (Gilead Sciences, Inc., priority 2023, published 2025)

Legend:
[1] = test system: GP2D (KRAS G12D) cells; assay: 2D Cell Viability Assay (CellTiter-Glo); type: cell-based; settings: 4 days, CellTiter-Glo luminescence
Method: Example B. 2D Cell Viability Assay
Compounds were tested in a 384-well format for their ability to inhibit the viability of GP2D (KRAS G12D) cells in 2D assays. Compounds were serially diluted (1:3) in DMSO. The LabCyte ECHO Acoustic dispenser system was used to pre-spot assay plates with 200 nL of test molecule per well. 1000 cells/well (40 μL volume per well) in RPMI medium with 10% FBS, and Penicillin-Streptomycin-Glutamine were plated in pre-spotted 384-well plates (Greiner, Catalog #781076) on the BioTEK EL406 liquid dispenser with a 5 μL dispensing cassette (BioTek 7170011). The plates were incubated at 37° C., 5% CO2 for 4 days before addition of CellTiter-Glo (CTG) reagent and measurement of luminescence signal. EC50 values were defined as the compound concentration that causes a 50% decrease in luminescence signal and were calculated using a sigmoidal dose-response model to generate curve fits.

[2] = target: GDP-loaded KRAS G12D (Homo sapiens, UniProt P01116, G12D); assay: KRAS G12D (GDP) Biochemical Assay (TR-FRET probe displacement); type: binding; settings: 0.5 nM enzyme, 2 hours at room temperature
Method: Example A. KRAS G12D (GDP) Biochemical Assay
Compounds were tested for binding to GDP-loaded KRAS G12D in a 384-well assay format using a TR-FRET probe displacement assay in buffer consisting of 50 mM Hepes (pH 7.4), 150 mM NaCl, 5 mM MgCl2 and 0.005% Tween-20. […] Compounds were serially diluted (1:3) in DMSO. The LabCyte ECHO Acoustic dispenser system was used to pre-spot the assay plates (384-well Non-Binding Surface plates, Corning, Catalog #3824) with 50 nL of compound. The compounds were pre-incubated with 5 μL of 2× final enzyme concentration for 30 minutes before adding 5 μL of 2× final concentration of Eu-streptavidin and TR-FRET probe (10 μL final reaction volume). The plates were incubated at room temperature for 2 hours before measuring TR-FRET ratio on the Envision plate reader. IC50 values were defined as the compound concentration that causes a 50% decrease in TR-FRET ratio and were calculated using a sigmoidal dose-response model to generate curve fits.

Chain of GDP-loaded KRAS G12D (P01116 1-188 isoform P01116-2 G12D): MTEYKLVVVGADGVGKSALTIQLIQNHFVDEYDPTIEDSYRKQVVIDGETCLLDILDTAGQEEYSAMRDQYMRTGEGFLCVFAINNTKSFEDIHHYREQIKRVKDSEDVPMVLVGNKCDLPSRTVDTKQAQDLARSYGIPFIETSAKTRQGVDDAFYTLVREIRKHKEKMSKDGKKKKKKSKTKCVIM

SMILES | EC50 ([1]; GP2d, 96 h) [nM] | IC50 [2] [nM] | EC50 [1] [nM]
C#Cc1c(F)ccc2cc(N)nc(-c3c(F)c4c5c(nc(OC[C@@]67CCCN6C[C@H](F)C7)nc5c3F)N3C[C@H]5CC[C@H](N5)[C@H]3CC4)c12 (atropisomer, axis not shown; (aR)) [Example 62, 1-((1S,4R,11S,14aR)-10,12-difluoro-8-(((2R,7aS)-2-fluorotetrahydro-1H-pyrrolizin-7a(5H)-yl)methoxy)-1,2,3,4,5,13,14,14a-octahydro-1,4-epiminoazepino[1′,2′:1,7]azepino[2,3,4-de]quinazolin-11-yl)-8-ethynyl-7-fluoroisoquinolin-3-amine] | 2.5 | 0.03 | 
N#Cc1c(N)sc2cccc(-c3c(F)c4c5c(nc(OC[C@@]67CCCN6C[C@H](F)C7)nc5c3F)N3C[C@H]5CC[C@H](N5)[C@H]3CC4)c12 [Example 25, 2-amino-4-((1S,4R,14aR)-10,12-difluoro-8-(((2R,7aS)-2-fluorotetrahydro-1H-pyrrolizin-7a(5H)-yl)methoxy)-1,2,3,4,5,13,14,14a-octahydro-1,4-epiminoazepino[1′,2′:1,7]azepino[2,3,4-de]quinazolin-11-yl)benzo[b]thiophene-3-carbonitrile] | 1.6 | 0.12 | 
C[C@H]1Cc2c(F)c(-c3ncc(F)c4sc(N)c(C#N)c34)c(F)c3nc(OC[C@@]45CCCN4C[C@H](F)C5)nc(c23)N2C[C@H]3CC[C@H](N3)[C@H]12 (single isomer, unassigned) [Example 51] |  | 0.8 | 3.4
N#Cc1c(N)sc2c(F)ccc(-c3c(F)c4c5c(nc(OC[C@@]67CCCN6C[C@H](F)C7)nc5c3F)N3C[C@H]5CC[C@H](N5)[C@H]3CC4)c12 (single isomer, unassigned) [Example 60] |  | 0.03 | 1.8
C=Cc1c(-c2nc(N)cc(C)c2C(F)(F)F)c(F)c2nc(OC[C@@]34CCCN3C[C@H](F)C4)nc3c2c1CC[C@@H]1[C@@H]2CC[C@H](CN31)N2 [Example 15, 6-((1S,4R,14aR)-10-fluoro-8-(((2R,7aS)-2-fluorotetrahydro-1H-pyrrolizin-7a(5H)-yl)methoxy)-12-vinyl-1,2,3,4,5,13,14,14a-octahydro-1,4-epiminoazepino[1′,2′:1,7]azepino[2,3,4-de]quinazolin-11-yl)-4-methyl-5-(trifluoromethyl)pyridin-2-amine] | 24 | 0.43 | 
C#Cc1c(F)ccc2cc(N)nc(-c3nc4c5c(nc(OC[C@@]67CCCN6C[C@H](F)C7)nc5c3F)N3C[C@H]5CC[C@H](N5)[C@H]3CCC4)c12 [Example 26, 8-ethynyl-7-fluoro-1-((6aR,7S,10R)-1-fluoro-13-(((2R,7aS)-2-fluorotetrahydro-1H-pyrrolizin-7a(5H)-yl)methoxy)-5,6,6a,7,8,9,10,11-octahydro-4H-3,11a,12,14,15-pentaaza-7,10-methanocyclohepta[4,5]cycloocta[1,2,3-de]naphthalen-2-yl)isoquinolin-3-amine] | 4.1 | 0.4 | 
Cc1cc(N)nc(-c2c(Cl)c3c4c(nc(OC[C@@]56CCCN5C[C@H](F)C6)nc4c2F)N2C[C@H]4CC[C@H](N4)[C@H]2CCC3)c1C(F)(F)F (single isomer, unassigned) [Example 2] | 65 | 8.8 | 
Cc1cc(N)nc(-c2nc3c4c(nc(OC[C@@]56CCCN5C[C@H](F)C6)nc4c2F)N2C[C@H]4CC[C@H](N4)[C@@H]2CC3)c1C(F)(F)F [Example 4, 6-((5aS,6S,9R)-1-fluoro-12-(((2R,7aS)-2-fluorotetrahydro-1H-pyrrolizin-7a(5H)-yl)methoxy)-4,5,5a,6,7,8,9,10-octahydro-3,10a,11,13,14-pentaaza-6,9-methanonaphtho[1,8-ab]heptalen-2-yl)-4-methyl-5-(trifluoromethyl)pyridin-2-amine] | > 100 | 62 | 
C[C@H]1Cc2c(Cl)c(-c3cccc4sc(N)c(C#N)c34)c(F)c3nc(OC[C@@]45CCCN4C[C@H](F)C5)nc(c23)N2C[C@H]3CC[C@H](N3)[C@H]12 (atropisomer, axis not shown; (aS)) [Example 57, 2-amino-4-((1S,4R,11R,14S,14aS)-12-chloro-10-fluoro-8-(((2R,7aS)-2-fluorotetrahydro-1H-pyrrolizin-7a(5H)-yl)methoxy)-14-methyl-1,2,3,4,5,13,14,14a-octahydro-1,4-epiminoazepino[1′,2′:1,7]azepino[2,3,4-de]quinazolin-11-yl)benzo[b]thiophene-3-carbonitrile] | 0.94 | 0.06 | 
Cc1cc(N)nc(-c2c(Cl)c3c4c(nc(OC[C@@]56CCCN5C[C@H](F)C6)nc4c2F)N2C[C@H]4CC[C@H](N4)[C@H]2CC3)c1C(F)(F)F (single isomer, unassigned) [Example 5] |  | 1.1 | 14
Cc1cc(N)nc(-c2c(Cl)c3c4c(nc(OC[C@@]56CCCN5C[C@H](F)C6)nc4c2F)N2C[C@H]4CC[C@H](N4)[C@H]2CCC3)c1C(F)(F)F (single isomer, unassigned) [Example 3] |  | 87 | > 100
Cc1cc(N)[n+]([O-])c(-c2nc3c4c(nc(OC[C@@]56CCCN5C[C@H](F)C6)nc4c2F)N2C[C@H]4CC[C@H](N4)[C@H]2CCC3)c1C(F)(F)F [Example 8, 6-amino-2-((6aR,7S,10R)-1-fluoro-13-(((2R,7aS)-2-fluorotetrahydro-1H-pyrrolizin-7a(5H)-yl)methoxy)-5,6,6a,7,8,9,10,11-octahydro-4H-3,11a,12,14,15-pentaaza-7,10-methanocyclohepta[4,5]cycloocta[1,2,3-de]naphthalen-2-yl)-4-methyl-3-(trifluoromethyl)pyridine 1-oxide] | > 100 | > 100 | 
Cc1cc(N)nc(-c2c(F)c3c4c(nc(OC[C@@]56CCCN5C[C@H](F)C6)nc4c2F)N2C[C@H]4CC[C@H](N4)[C@H]2CC3)c1C(F)(F)F (single isomer, unassigned) [Example 22] |  | 0.08 | 1.6
C#Cc1c(F)ccc2cc(N)nc(-c3c(Cl)c4c5c(nc(OC[C@@]67CCCN6C[C@H](F)C7)nc5c3F)N3C[C@H]5CC[C@H](N5)[C@@H]3[C@@H](C)C4)c12 (atropisomer, axis not shown; (aS)) [Example 48, 1-((1S,4R,11R,14S,14aS)-12-chloro-10-fluoro-8-(((2R,7aS)-2-fluorotetrahydro-1H-pyrrolizin-7a(5H)-yl)methoxy)-14-methyl-1,2,3,4,5,13,14,14a-octahydro-1,4-epiminoazepino[1′,2′:1,7]azepino[2,3,4-de]quinazolin-11-yl)-8-ethynyl-7-fluoroisoquinolin-3-amine] | 8.1 |  | 
Cc1cc(N)nc(-c2cc3c4c(nc(OC[C@@]56CCCN5C[C@H](F)C6)nc4c2F)N2C[C@H]4CC[C@H](N4)[C@H]2CC3)c1C(F)(F)F [Example 9, 6-((1S,4R,14aR)-10-fluoro-8-(((2R,7aS)-2-fluorotetrahydro-1H-pyrrolizin-7a(5H)-yl)methoxy)-1,2,3,4,5,13,14,14a-octahydro-1,4-epiminoazepino[1′,2′:1,7]azepino[2,3,4-de]quinazolin-11-yl)-4-methyl-5-(trifluoromethyl)pyridin-2-amine] | 37 | 2.5 | 
C[C@H]1Cc2c(F)c(-c3ncc(F)c4sc(N)c(C#N)c34)c(F)c3nc(OC[C@@]45CCCN4C[C@H](F)C5)nc(c23)N2C[C@H]3CC[C@H](N3)[C@H]12 (single isomer, unassigned) [Example 50] | 2.6 | 0.12 | 
Cc1cc(N)nc(-c2c(F)c3c4c(nc(OC[C@@]56CCCN5C[C@H](F)C6)nc4c2F)N2C[C@H]4CC[C@H](N4)[C@H]2CC3)c1C(F)(F)F (single isomer, unassigned) [Example 21] |  | 2 | 12
C[C@H]1Cc2c(Cl)c(-c3ccc(F)c4sc(N)c(C#N)c34)c(F)c3nc(OC[C@@]45CCCN4C[C@H](F)C5)nc(c23)N2C[C@H]3CC[C@H](N3)[C@H]12 (atropisomer, axis not shown; (aS)) [Example 52, 2-amino-4-((1S,4R,11R,14S,14aS)-12-chloro-10-fluoro-8-(((2R,7aS)-2-fluorotetrahydro-1H-pyrrolizin-7a(5H)-yl)methoxy)-14-methyl-1,2,3,4,5,13,14,14a-octahydro-1,4-epiminoazepino[1′,2′:1,7]azepino[2,3,4-de]quinazolin-11-yl)-7-fluorobenzo[b]thiophene-3-carbonitrile] |  | 0.03 | 
